Reference: patent publication US9481743B2, “Polyelectrolyte polymers, their manufacture and use” (priority 2013, dated 2016)
“Also recorded” adds a separate entry of the source.

How the values were obtained:
[1] = Solubility/miscibility tests; assay type: physicochemical
Method: Approximately 5-10 mg of compound was added to a test tube followed by the addition of 1.5 mL of solvent followed by 5 seconds of gentle stirring. If dissolution was not observed immediately, the mixture was further stirred and sonicated for 30 seconds. Material was deemed soluble if the resulting solution was free of particulate and haze, determined by visual inspection. […] If solutions remained hazy, they were referred to as emulsion mixtures.

[2] = Water contact angle of UV-cured HDDA films containing HFPPS; assay type: physicochemical; conditions: UV-cured film
Method: Nuclear Magnetic Resonance (NMR) spectroscopy was conducted on a Varian INOVA 400 MHz spectrometer (^1H, 400.09 MHz, ^31P{^1H} 161.82 MHz, ^19F, 376.15 MHz). All ^1H spectra were referenced relative to tetramethyl silane (CDCl3; ^1H δH=7.26 ppm and CO(CD3)2; ^1H δH=2.04). The chemical shifts for ^31P{H} NMR spectroscopy were referenced using an external standard (85% H3PO4; δP=0). The chemical shifts for ^19F{^1H} NMR spectroscopy were also referenced using an external standard (trifluorotoluene; δF=−63.9 ppm). Infrared spectra were recorded using a Bruker Tensor 27 spectrometer using attenuated total reflectance mode (ATR) using a ZnSe crystal. Sonication of the UV curable formulations was conducted in an E60H Elmasonic sonicator at frequency of 37 kHz using an effective power of 100 W. Deposition of the formulation was performed using a 25-micron Meyer Rod purchased from Gardco on microscope slides purchased from Technologist Choice unless otherwise noted. UV curing was performed using a modified UV curing system purchased from UV Process and Supply Inc. with a mercury bulb. Samples were irradiated with an energy density of 1956 mJ/cm^2 and an irradiance of 1383 mW/cm^2. Water contact angles (WCA) were measured using a Kruss DSA100 Drop Shape Analyzer and analyzed using Drop Shape Analysis. Thermal degradation was determined using Thermal Gravimetric Analysis (TGA) on a Q600 SDT TA instrument. A sample of 5-15 mg was placed in an aluminum cup and heated at a rate of 10° C./min from room temperature to 600° C. under nitrogen atmosphere (100 mL/min). Glass transition temperatures were determined using Differential Scanning calorimetry (DSC) on a DSC Q20 TA instrument. A sample of approximately 10 mg was placed in an aluminum Tzero pan and underwent a heat/cool/heat profile at 10° C./min under nitrogen atmosphere (100 mL/min). Data was acquired from the final heat cycle of the heat/cool/heat profile. Melting points of all HFPS were determined using a Gallenkamp Variable Heater in air. Mass spectrometry was recorded in both positive and negative ion modes using electrospray ionization (ESI) Micromass LCT spectrometer. Elemental analysis (EA) was performed by the Elemental Analysis Laboratory at the Université de Montreal. Time-of-fight Secondary Ion Mass Spectrometry (TOF-SIMS) measurements were performed using an ION-TOF (Gmbh) TOF-SIMS IV equipped with a Bi cluster liquid metal ion source. A 25 keV Bi3^+ cluster primary pulsed ion beam (10 kHz, pulse width 20 ns) was used to bombard the surface to generate secondary ions. The positive or negative secondary ions were extracted from the sample surface, mass separated and detected via a reflectron-type time-of-flight analyser. Depth profiles were obtained by repeating the following cycle: sputtering an area of 500 μm×500 μm on the sample surface with a 3 keV Cs^+ ion beam for 0.5 s followed by, with a delay of 2 s, collecting mass spectra at 128×128 pixels with the Bi3^+ ion beam over an area of 245 μm×245 μm in the center of the sputtered area.
A desired amount of photoinitiator, crosslinker, and phosphonium salt were weighed and combined in screw top vials. The mixture was then insonated at 45° C. for 20 min until the solutions were free of particulate and haze. After cooling to room temperature, the solutions were cast on glass slides and irradiated with UV light three times.

[3] = Static water contact angle of UV-cured phosphonium films with alumina microparticles; assay type: physicochemical
Method: Solution ^1H, ^19F{^1H} and ^31P{^1H} NMR spectra were recorded on a Varian INOVA 400 MHz spectrometer (^1H; 400.09 MHz, ^31P; 161.82 MHz, ^19F; 376.15 MHz). All samples for ^1H NMR spectroscopy were referenced to the residual protons in the deuterated solvents (^1H: chloroform-d 7.26; acetone-d6 2.05). ^31P{^1H} and ^19F{^1H} NMR spectroscopic chemical shifts were reported relative to external standards (85% H3PO4: 0.00 ppm and CF3C6H5: −63.9 ppm). Mass spectrometry (MS) measurements were recorded in positive and negative ion modes using an electrospray ionization (ESI) Micromass LCT spectrometer. Infrared spectra were recorded using a Bruker Tensor 27 spectrometer from Bruker Optics Inc. Samples were measured by attenuated total reflectance (ATR) infrared spectroscopy, using a zinc selenide crystal. Melting points were determined using a Gallenkamp Variable Heater in air. Scanning electron microscope images of the surfaces were obtained using a Hitachi S-4500 field emission instrument, operated at an electron beam voltage of 10 kV equipped with a Quartz Xone EDX system. AFM was performed on a Park Systems XE-100 in air with a relative humidity of ˜40%. […] Water contact angles were measured on a Kruss DSA 100 with DSA drop shape analysis software. Using an automated dispensing system, static 5 μL droplets of distilled water were deposited in different areas upon the surface. The contact angles were measured on the left and right side of each drop on at least ten droplets, resulting in a minimum of twenty angles per film. The reported contact angle is the average of all measurements.
The general procedure for film preparation and curing was as follows: the chosen phosphonium salt (95%) and 1-hydroxycyclohexylphenylketone (CPK, 5%) were dissolved in acetone. Microparticles (when included) were then added to the solution, the resulting mixture insonated in a sonic bath (Elasmonic E 60H, 100 Watts) for 10 minutes and then applied to pre-treated polyester sheets (DuPont) with a pipette. A #10 wire Meyer rod (Gardco) was used to spread the mixture evenly across the polyester substrate, producing a wet thickness of approximately 25 μm. A UV-curing conveyor (UV Process Supply) was set to allow a time exposure of ˜3 s (UV-light irradiance over this time frame was measured at 760 mJ/cm^2). The substrate with the uncured film was taped to a metal sheet and passed through the UV-conveyor.

[4] = Density of surface phosphonium cations by UV-vis (fluorescein dye); assay type: physicochemical
Method: Characterization by FTIR-ATR spectroscopy confirmed the conversion of acrylate functionality post polymerization. Percent cure was determined using a literature procedure. The intensity of the acrylate vibration at 810 cm^−1 was compared to the C═O vibration at 1750 cm^−1 both before and after irradiation. […] The density of surface phosphonium cations was determined by UV-vis spectroscopy as described in a literature procedure.
Characterization by FTIR-ATR spectroscopy confirmed the conversion of acrylate functionality post polymerization. […] The density of surface phosphonium cations was determined by UV-vis spectroscopy as described in a literature procedure^23. […] This assumes a 1:1 ratio of positive and negative charge on the surface.
Before deposition of [Au25L18]^−, the number of accessible charges on the PPF was quantified. A known protocol utilizing fluorescein dye was employed to determine the value for the above system and to relate this quantity back to the percentage of phosphonium monomers that were included in the original formulation.^23 This procedure is commonly used as a characterization technique for films containing surface-bound quaternary salts. […] At 30 wt %, a dramatic increase in the number of quaternary charges was observed (1.5×10^15 cations/cm^2). Increasing the salt content to 37.5 and 47.5 wt % yielded surfaces with 8.2×10^15 and 1.4×10^16 cations/cm^2, respectively. […] Use of low melting phosphonium salts permits formation of a formulation having low viscosity despite the high ion content, allowing for ease of handling and deposition. Use of high melting point organic salts in a similar fashion generates formulations with relatively high viscosities or significant solubility issues, which manifest themselves in poor films. Advantages of the phosphonium-based acrylate monomer in the fabrication of the charged surfaces can thus be seen.

[5] = test system: Bacteria; assay: Antimicrobial efficacy of [4]Cl films (same procedure, bacterium not given); assay type: cell-based
Method: A desired amount of 2-hydrox-2-methy-1-phenyl-propanone (5 wt %), diacrylate crosslinker (EB 130, a cyclic aliphatic diacrylate) and the acrylate-appended phosphonium salt were weighed and combined in screw top vials. The mixture was then insonated at 45° C. for 20 min until the solutions were free of particulate and haze. After cooling to room temperature, the solutions were cast on polyester films and irradiated with UV light three times. Leached films were treated with H2O (Milli-Q) in a wrist action shaker for 4 hours, followed by washing with H2O (2×10 mL) and air drying. Both leached and unleached films were subjected to the antibacterial test (below).
The antibacterial activities of the charged surfaces against Gram-negative bacteria Escherichia coli […] were studied using the antibacterial drop-test. E. coli precultured in 15 mL of nutrient broth (Difco™ BD) at 37° C. for 24 h, was washed by centrifuging at 4000 rpm for 10 min. After removing the supernatant, the cells were washed with phosphate buffered saline (PBS) twice and re-suspended and diluted to approximately 10^6 colony forming units (CFU)/mL in PBS solution. The samples were placed in sterilized Petri dishes. 100 μL of PBS solution with bacteria was added dropwise onto sterilized surfaces until completely covered. The petri dishes were sealed and placed in an incubator at 37° C. with the humidity 46%. After 4 hr, the bacteria were washed from the surface of the sample by using 10 mL PBS in the sterilized Petri dish. From this solution, 100 μL was spread onto solid plate count agar (Difco™ BD). After incubation for 24 h at 37° C., the number of surviving bacterial colonies on the Petri dishes were counted. The results after multiplication with the dilution factor were expressed as CFU per mL. The above experiments were carried out in triplicate for each sample. The percentage of killed bacteria was calculated as [(CFU of initial bacterial suspension−CFUs following surface contact)/CFU of initial bacterial suspension]×100.
As phosphonium content in the films increased, both an increase in surface charge density and bacterial activity was observed. […] The pronounced difference in films containing 25 and 30 wt % is believed to be due to differences in surface energy between EB 130 and the phosphonium salt. The non-polar nature of the crosslinking agent has lower surface energy than that of the phosphonium salt. […] Upon the addition of sufficient phosphonium salt, cations became present at the surface, as detected by the fluorescein dye experiment and exemplified by the increase in antibacterial efficacy. […] Films were prepared and analyzed following the same procedure.

[6] = film with 50 w % Al2O3 microparticles (±3)
[7] = particle-free UV-cured film of the salt with 5 w % CPK on polyester

With `C=Cc1ccc(C[P+](CCC(F)(F)C(F)(F)C(F)(F)C(F)(F)F)(CCC(F)(F)C(F)(F)C(F)(F)C(F)(F)F)CC(C)CC(C)(C)C)cc1.O=S(=O)([N-]S(=O)(=O)C(F)(F)F)C(F)(F)F` (stereo not drawn) [[1]NTf2] the “Solubility (in words)” value ([1]; chloroform) was “soluble”, the “Solubility (in words)” value ([1]; dichloromethane) was “soluble” and the Water contact angle ([2]; 0.1 wt % in HDDA) was 82 °. It also gave a Water contact angle ([2]; 0.5 wt % in HDDA) of 84 °, a Water contact angle ([2]; 1 wt % in HDDA) of 87 ° and a Water contact angle ([2]; 1.5 wt % in HDDA) of 87 °.
For `C=Cc1ccc(C[P+](CCC(F)(F)C(F)(F)C(F)(F)C(F)(F)F)(CCC(F)(F)C(F)(F)C(F)(F)C(F)(F)F)CCC(F)(F)C(F)(F)C(F)(F)C(F)(F)F)cc1.O=S(=O)([N-]S(=O)(=O)C(F)(F)F)C(F)(F)F` [[2]NTf2], the WCA [3, 6] was 141 °, the WCA [3, 7] was “≈ 90 °” and the Water contact angle ([2]; 0.05 wt % in HDDA) was 80 °. It also gave a Water contact angle ([2]; 0.1 wt % in HDDA) of 89 °, a Water contact angle ([2]; 0.5 wt % in HDDA) of 91 ° and a Water contact angle ([2]; 1 wt % in HDDA) of 92 °. The Water contact angle ([2]; 1.5 wt % in HDDA) was 92 °.
With `C=CC(=O)OCCC[P+](CCCC)(CCCC)CCCC.[Cl-]` [[4]Cl, (3-(acryloyloxy)propyl)tributylphosphonium chloride] the Charge/Unit area ([4]; 15% [4]Cl film) was 0 ×10^x Y^+/cm^2, the Charge/Unit area ([4]; 20% [4]Cl film) was 5.6 × 10^14 ×10^x Y^+/cm^2 and the Charge/Unit area ([4]; 25% [4]Cl film) was 3.46 × 10^15 ×10^x Y^+/cm^2. For the same molecule, the Charge/Unit area ([4]; 30% [4]Cl film) was 9.07 × 10^15 ×10^x Y^+/cm^2, the Charge/Unit area ([4]; 37.5% [4]Cl film) was 1.24 × 10^16 ×10^x Y^+/cm^2 and the Charge/Unit area ([4]; 47.5% [4]Cl film) was 2.54 × 10^16 ×10^x Y^+/cm^2. The “% Bacteria killed” value ([5]; 15% [4]Cl film) was 18%, the “% Bacteria killed” value ([5]; 20% [4]Cl film) was 18% and the “% Bacteria killed” value ([5]; 25% [4]Cl film) was 71%. The “% Bacteria killed” value ([5]; 30% [4]Cl film) was 71%, the “% Bacteria killed” value ([5]; 37.5% [4]Cl film) was 75% and the “% Bacteria killed” value ([5]; 47.5% [4]Cl film) was 100%.
For `C=Cc1ccc(C[P+](CCC(F)(F)C(F)(F)C(F)(F)C(F)(F)F)(CCC(F)(F)C(F)(F)C(F)(F)C(F)(F)F)CC(C)CC(C)(C)C)cc1.[Cl-]` (stereo not drawn) [[1]Cl], the WCA [3, 6] was 88 ° and the WCA [3, 7] was “≈ 80 °; also recorded: ≈ 90 °”.
For `C=Cc1ccc(C[P+](CCC(F)(F)C(F)(F)C(F)(F)C(F)(F)F)(CCC(F)(F)C(F)(F)C(F)(F)C(F)(F)F)CCC(F)(F)C(F)(F)C(F)(F)C(F)(F)F)cc1.[Cl-]` [[2]Cl], the WCA [3, 7] was “≈ 80 °”.
With `C=Cc1ccc(C[P+](CCC(F)(F)C(F)(F)C(F)(F)C(F)(F)C(F)(F)C(F)(F)F)(CCC(F)(F)C(F)(F)C(F)(F)C(F)(F)C(F)(F)C(F)(F)F)CC(C)CC(C)(C)C)cc1.[Cl-]` (stereo not drawn) [[3]Cl] the “Solubility (in words)” value ([1]; chloroform) was “soluble” and the “Solubility (in words)” value ([1]; dichloromethane) was “soluble”.
